In ChEMBL document CHEMBL1201862, “PubChem BioAssay data set” (2004):
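Grown in 96-well plates, cells were treated for 48 hours with each compound at five concentrations. Insufficient inhibition: endpoint recorded as highest concentration tested. GI50 is the concentration that inhibits growth by half.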 Calls of active or inactive are those of the source. Rule as the data show it: active = GI50 up to about 1.1 µM and inactive = higher.

Experiments:
Test in all cases: growth of human tumour cells (NCI), 48 h
[1] = tested on: A549
[2] = tested on: COLO 205
[3] = tested on: K562
[4] = tested on: KM12
[5] = tested on: LOX IMVI
[6] = tested on: M14
[7] = tested on: M19-MEL
[8] = tested on: Malme-3M
[9] = tested on: NCI-H522
[10] = tested on: OVCAR-8
[11] = tested on: RPMI-8226
[12] = tested on: SK-MEL-28
[13] = tested on: SK-MEL-5
[14] = tested on: U-251
[15] = tested on: UO-31
[16] = tested on: HCT-116
[17] = tested on: TK-10
[18] = tested on: MCF7
[19] = tested on: RXF 393
[20] = tested on: T47D

| Compound | GI50 [1] | GI50 [2] | GI50 [3] | GI50 [4] | GI50 [5] | GI50 [6] | GI50 [7] | GI50 [8] | GI50 [9] | GI50 [10] | GI50 [11] | GI50 [12] | GI50 [13] | GI50 [14] | GI50 [15] | GI50 [16] | GI50 [17] | GI50 [18] | GI50 [19] | GI50 [20] |
| --- | --- | --- | --- | --- | --- | --- | --- | --- | --- | --- | --- | --- | --- | --- | --- | --- | --- | --- | --- | --- |
| CCO/S(=N/S(=O)(=O)c1ccccc1)c1ccccc1[N+](=O)[O-] (stereo unspecified) | > 100 µM (inactive) | > 100 µM (inactive) | > 100 µM (inactive) | > 100 µM (inactive) | > 100 µM (inactive) | > 100 µM (inactive) | > 100 µM (inactive) | > 100 µM (inactive) | > 100 µM (inactive) | > 100 µM (inactive) | > 100 µM (inactive) | > 100 µM (inactive) | > 100 µM (inactive) | > 100 µM (inactive) | > 100 µM (inactive) |  |  |  |  |  |
| Cc1cc(C(=O)N2CCN(Cc3ccccc3)CC2)c(C)o1 | > 100 µM (inactive) |  | > 100 µM (inactive) | > 100 µM (inactive) | > 100 µM (inactive) | > 100 µM (inactive) | > 100 µM (inactive) |  | > 100 µM (inactive) | > 100 µM (inactive) | > 100 µM (inactive) | > 100 µM (inactive) | > 100 µM (inactive) | > 100 µM (inactive) | > 100 µM (inactive) | > 100 µM (inactive) | > 100 µM (inactive) |  |  |  |
| O=C1CCNC/C1=C\c1ccccc1 | 22.2 µM (inactive) | 40.6 µM (inactive) | 23.1 µM (inactive) | 14.8 µM (inactive) | 16.8 µM (inactive) | 14 µM (inactive) | 17.9 µM (inactive) |  | 11.3 µM (inactive) | 22.2 µM (inactive) | 24 µM (inactive) | 17.4 µM (inactive) | 20.3 µM (inactive) | 20.5 µM (inactive) | 17 µM (inactive) | 17.9 µM (inactive) | 26.1 µM (inactive) |  |  |  |
| CC1CCC2(C(=O)O)CCC3(C)C(=CCC4C5(C)CC(O)C(O)C(C)(CO)C5C(O)CC43C)C2C1C (stereo unspecified) | > 100 µM (inactive) | 50 µM (inactive) | 41.1 µM (inactive) | 43.3 µM (inactive) | 20.5 µM (inactive) | > 100 µM (inactive) |  | 47.5 µM (inactive) | 17.5 µM (inactive) | 21.1 µM (inactive) | 33.4 µM (inactive) | 30.8 µM (inactive) | 41.8 µM (inactive) | 21.6 µM (inactive) | > 100 µM (inactive) | 5.65 µM (inactive) | > 100 µM (inactive) | 41.5 µM (inactive) | 31.3 µM (inactive) | 37.4 µM (inactive) |
| c1ccc2sc(SSSc3nc4ccccc4s3)nc2c1 | > 100 µM (inactive) | > 100 µM (inactive) | > 100 µM (inactive) | > 100 µM (inactive) | 19.1 µM (inactive) | > 100 µM (inactive) |  | > 100 µM (inactive) | 23 µM (inactive) | 55.6 µM (inactive) | > 100 µM (inactive) | > 100 µM (inactive) | > 100 µM (inactive) | > 100 µM (inactive) | > 100 µM (inactive) | > 100 µM (inactive) | > 100 µM (inactive) | 44.1 µM (inactive) | > 100 µM (inactive) | 32 µM (inactive) |
| CCOC(=O)C1(Cc2ccccc2)CCN(C(=O)c2ccccc2)C2C1C2(Cl)Cl (stereo unspecified) | 30.1 µM (inactive) | 18.3 µM (inactive) | 27 µM (inactive) | 29.9 µM (inactive) | 18.4 µM (inactive) | 18.3 µM (inactive) |  | 21.4 µM (inactive) | 18.1 µM (inactive) | 28.3 µM (inactive) | 13.2 µM (inactive) | 21.1 µM (inactive) | 15.9 µM (inactive) | 15.9 µM (inactive) | 28.4 µM (inactive) | 15 µM (inactive) | 24.4 µM (inactive) | 25.4 µM (inactive) | 16 µM (inactive) | 14.1 µM (inactive) |
| N#CCN1CCCN(CC#N)CCN(CC#N)CCCN(CC#N)CC1 | > 100 µM (inactive) | 11.4 µM (inactive) | > 100 µM (inactive) | 39.9 µM (inactive) | 16.7 µM (inactive) | > 100 µM (inactive) |  | > 100 µM (inactive) | > 100 µM (inactive) | > 100 µM (inactive) | 54.5 µM (inactive) | > 100 µM (inactive) | > 100 µM (inactive) | > 100 µM (inactive) | > 100 µM (inactive) | > 100 µM (inactive) | > 100 µM (inactive) | > 100 µM (inactive) | > 100 µM (inactive) | > 100 µM (inactive) |
| COc1ccc2c(c1)c(=O)c1c(NCCNCCO)ccc3c(=O)n(CCN(C)C)c(=O)n2c31 | < 0.0255 µM (active) | 0.0467 µM (active) | 0.0333 µM (active) | 0.142 µM (active) | 0.0198 µM (active) | 0.27 µM (active) |  | 0.0989 µM (active) | < 0.0182 µM (active) | 0.0604 µM (active) | 0.0912 µM (active) | 0.475 µM (active) | 0.0562 µM (active) | < 0.0374 µM (active) | 0.182 µM (active) | < 0.0186 µM (active) | 0.187 µM (active) | < 0.0276 µM (active) | 0.114 µM (active) | 0.0769 µM (active) |
| CC[N+]1(C)CCC(O)(/C=C/c2ccc(OC)cc2)C(C(=O)/C=C/c2ccc(OC)cc2)C1 (stereo unspecified) | 23.3 µM (inactive) | 2.58 µM (inactive) | 2.06 µM (inactive) | 4.13 µM (inactive) | 2.64 µM (inactive) | 10.4 µM (inactive) |  | 14.4 µM (inactive) | 2.26 µM (inactive) | 23.3 µM (inactive) | 0.252 µM (active) | 15.3 µM (inactive) | 14.7 µM (inactive) | 15.6 µM (inactive) | 12.6 µM (inactive) | 12.7 µM (inactive) | 2.96 µM (inactive) | 4.29 µM (inactive) | 15.1 µM (inactive) | 5.86 µM (inactive) |
| Oc1cccc2cc(Br)cnc12 | 5.97 µM (inactive) | 29.2 µM (inactive) | 3.21 µM (inactive) | 7.5 µM (inactive) | 4.1 µM (inactive) | 9.14 µM (inactive) |  | 7.96 µM (inactive) | 2.49 µM (inactive) | 3.45 µM (inactive) | 3.49 µM (inactive) | 49.2 µM (inactive) | 6.5 µM (inactive) | 8.32 µM (inactive) | 6.98 µM (inactive) | 4.97 µM (inactive) | 35.8 µM (inactive) | 3.18 µM (inactive) | 16.7 µM (inactive) | 4.3 µM (inactive) |
| Cc1ccc(C)c(NC(=O)C(Cc2c[nH]c3ccccc23)NC(=O)OCc2ccccc2)c1 (stereo unspecified) | 13.2 µM (inactive) | 13.2 µM (inactive) | 12.7 µM (inactive) | 16.5 µM (inactive) | 37.3 µM (inactive) | 13.6 µM (inactive) |  | 25.4 µM (inactive) | 16.1 µM (inactive) | 17.5 µM (inactive) | 12 µM (inactive) | 25.8 µM (inactive) | 10.8 µM (inactive) | 17.1 µM (inactive) | 15.4 µM (inactive) | 23 µM (inactive) | 15.3 µM (inactive) | 23.1 µM (inactive) | 6.34 µM (inactive) | 9.18 µM (inactive) |
| CCOc1ccc2c(c1)c(=O)c1c(NCCN(CC)CC)ccc3nnn2c31 | > 39.5 µM (inactive) | 33.9 µM (inactive) | 18.2 µM (inactive) | 14 µM (inactive) | 11.4 µM (inactive) | 35.2 µM (inactive) |  | 17.1 µM (inactive) | 7.6 µM (inactive) | 7.05 µM (inactive) | 15.1 µM (inactive) | > 40.4 µM (inactive) | 16.3 µM (inactive) | 19.7 µM (inactive) | 3.4 µM (inactive) | > 25.4 µM (inactive) | 16.7 µM (inactive) | 12.3 µM (inactive) | 8.55 µM (inactive) | > 100 µM (inactive) |
| CCOC(=O)NC(=O)c1cn(C2CCCCC2)c(=O)[nH]c1=O | 58.7 µM (inactive) | 98.9 µM (inactive) | 4.9 µM (inactive) | 78.2 µM (inactive) | 9.75 µM (inactive) | 55.1 µM (inactive) | 76.4 µM (inactive) | > 100 µM (inactive) | > 100 µM (inactive) | > 100 µM (inactive) | 63.5 µM (inactive) | > 100 µM (inactive) |  | 56.8 µM (inactive) | 56 µM (inactive) | 5.11 µM (inactive) | > 100 µM (inactive) |  |  |  |
| OC1CCC(C2C3CCCCC3C3CCCCC3C2C2CCC(O)CC2)CC1 (stereo unspecified) | 4.18 µM (inactive) | 2.22 µM (inactive) | 4.69 µM (inactive) | 3.33 µM (inactive) | 2.31 µM (inactive) | 5.19 µM (inactive) |  | 15.8 µM (inactive) | 2.34 µM (inactive) | 3.72 µM (inactive) | 5.53 µM (inactive) | 3.83 µM (inactive) | 10.4 µM (inactive) | 3.6 µM (inactive) | 4.81 µM (inactive) | 4.52 µM (inactive) | 5.18 µM (inactive) | 3.4 µM (inactive) | 2.9 µM (inactive) | 5.26 µM (inactive) |
| COc1ccc(N(C(=O)NCCO)c2ccccc2)cc1 | > 100 µM (inactive) | > 100 µM (inactive) | > 100 µM (inactive) | > 100 µM (inactive) | > 100 µM (inactive) | > 100 µM (inactive) |  | > 100 µM (inactive) | > 100 µM (inactive) | > 100 µM (inactive) | > 100 µM (inactive) | > 100 µM (inactive) | > 100 µM (inactive) | > 100 µM (inactive) | > 100 µM (inactive) | > 100 µM (inactive) | > 100 µM (inactive) | > 100 µM (inactive) | > 100 µM (inactive) | > 100 µM (inactive) |
